Measured values taken from patent EP2698385A1, “Detection of synthetic cannabinoids” (priority 2012, dated 2014).
Like-named read-outs stand apart in the source and are kept apart here.

Legend:
Format in all cases: binding, sheep
Antibody to Immunogen I = settings: Cross-reactants at 100 ng/ml; Antibody to Immunogen I
Outline: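 Sheep anti-Immunogen I IgG coated on plates, then JWH-018 standards (0–40 ng/ml) competed with hapten-HRP conjugate for 1 h at 25°C. TMB read-out at 450 nm, 4-parameter fit. IC50 is the standard concentration giving 50% B/B0; cross-reactivity of related cannabinoids taken from the calibration curves.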

[1] = system: Antibody to Immunogen VII
Antibody to Immunogen IV = settings: Cross-reactants at 100 ng/ml; Antibody to Immunogen IV
[2] = system: Antibody to Immunogen VIII; settings: Cross-reactants at 100 ng/ml; Antibody to Immunogen VIII
Antibody to Immunogen II = test: Competitive ELISA (Example 36), antibody RS1833B12, tracer ESC4555/LK959, standard JWH-018; settings: Cross-reactants at 100 ng/ml; Antibody to Immunogen II
Experimental: An aqueous solution of each immunogen was formulated with Freund's Complete Adjuvant (FCA) to form an emulsion consisting of 2mg/ml* immunogen in 50% (v/v) FCA. Three sheep were immunised with this emulsion (1° immunisation), 0.25ml being intramuscularly injected at each of four sites in the flank of each animal. Subsequent immunizations (boosts) contained 1mg/ml* immunogen. All boosts were emulsified in 50% (v/v) Freund's Incomplete Adjuvant (FIA) and were administered in the same manner as the 1° immunisation, at monthly intervals. Blood sampling took place 7 to 14 days after each boost. *The general procedure for immunogen administration is outlined above, however, it was necessary to deviate from this protocol in some cases, due to reduced immunogen concentrations (Immunogens II, IV, VII and VIII) and/or amount available (Immunogen VIII). Any deviations from the protocol described are outlined in Table 1A below and highlighted in bold. Table 1A: Amount and volume of immunogens administered for primary and subsequent boosts
The appropriate antibody coating dilution was determined using standard ELISA checkerboard techniques. The plate was incubated overnight at 4°C, washed 4 times over 10 minutes with Tris buffered saline containing Tween 20 (TBST) and tapped dry. […] 75µl of conjugate (appropriate hapten-HRP) diluted in Tris buffer (pH 7.2) containing EDTA, D-mannitol, sucrose, thimerosal and BSA, was added to each of the wells. The appropriate dilution of conjugate was also determined using standard ELISA checkerboard techniques. The plate was incubated at 25°C for 1 hour. Excess unbound conjugate was removed by washing 6 times over a 10 minute period with TBST. 125µl of tetramethylbenzidine (TMB) substrate solution was added to each well of the plate that was then incubated for 20 minutes in the dark at room temperature. The reaction was terminated by addition of 125µl 0.2M H2SO4 to each well. The absorbance was then measured at 450nm using a microtiter plate reader. The data are inputted to a computer program called 'KC Junior'. It is a 4 parameter fit curve and allow the calculatation of concentrations between the standard runs.
In a similar manner to that described above, the wells of a 96-well microtiter plate were coated with the IgG fraction of the antiserum raised to Immunogens I or II.
The data set our in Tables 3 and 4 are generated using antibodies raised against the indicated Immunogens in a competitive binding assay with the indicated tracers, using the indicated standards: Table 2
Using the calibration curves generated and employing a single level of cross reactants, these were used to determine the cross-reactivity of each immunoassay with these substances. These are the standards used for the IC50 and cross-reactivity data generation • Immunogen I - JWH-018 • Immunogen II - JWH-018 • Immunogen IV - JWH-018 • Immunogen VII - JWH-015 • Immunogen VIII - JWH-018 Table 4: Cross reactivity of the competitive ELISAs for synthetic cannabinoids and their metabolites

[3] = Cross-reactants at 100 ng/ml, Antibody to Immunogen VII

| SMILES | %B/B0 (Antibody to Immunogen I) [%] | %B/B0 [1, 3] [%] | %B/B0 (Antibody to Immunogen IV) [%] | %B/B0 [2] [%] | %B/B0 (Antibody to Immunogen II) [%] | %B/B0 ([1]; JWH-015 standard 1.25 ng/ml) [%] | %B/B0 ([1]; JWH-015 standard 2.5 ng/ml) [%] | %B/B0 ([1]; JWH-015 standard 5 ng/ml) [%] | %B/B0 ([1]; JWH-015 standard 10 ng/ml) [%] | %B/B0 ([1]; JWH-015 standard 20 ng/ml) [%] | %B/B0 ([1]; JWH-015 standard 40 ng/ml) [%] | %B/B0 ([1]; JWH-015 standard 80 ng/ml) [%] | IC50 ([1]; Table 3c standard curve, standard concentration which produces 50% B/B0) [ng/mL] |
| --- | --- | --- | --- | --- | --- | --- | --- | --- | --- | --- | --- | --- | --- |
| CN1CCCCC1Cn1cc(C(=O)c2cccc3ccccc23)c2ccccc21 (stereo not shown) [AM-1220] | 4.45 | 49.71 | 86.93 | 106.65 | 77.46 |  |  |  |  |  |  |  |  |
| CCCCCn1cc(C(=O)c2cccc3ccccc23)c2cccc(O)c21 [JWH-018 7-hydroxyindole metabolite] | 6.72 | 68.53 | 93.31 | 94.46 | 34.79 |  |  |  |  |  |  |  |  |
| CCCC(C)n1cc(C(=O)c2cccc3ccccc23)c2ccccc21 (single isomer, unassigned) [JWH-018 N-(1-methylbutyl) isomer] | 12.42 | 67.71 | 73.49 | 63.22 | 51.92 |  |  |  |  |  |  |  |  |
| CCCCn1cc(C(=O)c2cccc3ccccc23)c2cccc(O)c21 [JWH-073 7-hydroxyindole metabolite] | 5.59 | 61.78 | 96.95 | 94.04 | 46.05 |  |  |  |  |  |  |  |  |
| CCCn1c(C)c(C(=O)c2cccc3ccccc23)c2ccccc21 [JWH-015] | 14.67 | 17.84 | 93.20 | 92.27 | 65.67 | 75 | 62 | 54 | 43 | 34 | 26 | 20 | 5.910 |
| CCCCn1cc(C(=O)c2cccc3ccccc23)c2ccc(O)cc21 [JWH-073 6-hydroxyindole metabolite] | 5.93 | 61.83 | 74.89 | 93.52 | 28.03 |  |  |  |  |  |  |  |  |
| Cc1ccc(C(=O)c2cn(CCCCCO)c3ccccc23)c2ccccc12 [JWH-122 N-(5-hydroxypentyl) metabolite] | 42.80 | 83.65 | 25.72 | 48.67 | 71.76 |  |  |  |  |  |  |  |  |
| O=C(c1ccccc1I)c1cn(CCCCCF)c2ccccc12 [AM-694] | 12.17 | 75.66 | 11.30 | 11.92 | 36.18 |  |  |  |  |  |  |  |  |
| O=C(c1cccc2ccccc12)c1cn(CCN2CCOCC2)c2cccc(O)c12 [JWH-200 4-hydroxyindole metabolite] | 44.97 | 91.15 | 87.88 | 91.82 | 78.17 |  |  |  |  |  |  |  |  |
| O=C(c1ccc(Cl)c2ccccc12)c1cn(CCCCCO)c2ccccc12 [JWH-398 N-(5-hydroxypentyl) metabolite] | 48.07 | 82.97 | 22.01 | 51.33 | 67.49 |  |  |  |  |  |  |  |  |
| CCCCn1c(C)c(C(=O)c2cccc3ccccc23)c2ccccc21 [JWH-016] | 20.71 | 19.31 | 91.14 | 75.24 | 68.73 |  |  |  |  |  |  |  |  |
| CCCCCCn1cc(C(=O)c2cccc3ccccc23)c2ccccc21 [JWH-019] | 7.22 | 70.05 | 21.96 | 74.50 | 15.42 |  |  |  |  |  |  |  |  |
| CCCCCn1c(C)c(C(=O)c2cccc3ccccc23)c2ccccc21 [JWH-007] | 32.96 | 27.77 | 60.63 | 61.76 | 66.06 |  |  |  |  |  |  |  |  |
| CC(C)(C)Cn1cc(C(=O)c2cccc3ccccc23)c2ccccc21 [JWH-018 N-(2,2-dimethylpropyl) isomer] | 3.89 | 52.46 | 80.42 | 95.09 | 60.15 |  |  |  |  |  |  |  |  |
| CCCCCn1cc(C(=O)c2ccccc2OC)c2ccccc21 [RCS-4 2-methoxy isomer] | 29.14 | 87.27 | 15.28 | 29.32 | 42.74 |  |  |  |  |  |  |  |  |
| O=C(c1cccc2ccccc12)c1cn(CCCCCF)c2ccccc12 [AM-2201] | 3.72 | 55.28 | 6.20 | 16.74 | 11.72 |  |  |  |  |  |  |  |  |
| CCCCCn1cc(C(=O)c2ccc(C)c3ccccc23)c2ccccc21 [JWH-122] | 62.98 | 89.37 | 3.94 | 14.43 | 44.55 |  |  |  |  |  |  |  |  |
| CCCCCn1cc(C(=O)c2cccc3ccc(C)cc23)c2ccccc21 [JWH 122 7-methylnaphthyl isomer] | 36.46 | 92.44 | 13.48 | 38.48 | 38.28 |  |  |  |  |  |  |  |  |
| CCCCCn1cc(C(=O)c2c(C)ccc3ccccc23)c2ccccc21 [JWH 122 2-methylnaphthyl isomer] | 33.35 | 85.37 | 26.13 | 61.74 | 27.14 |  |  |  |  |  |  |  |  |
| CCCCn1cc(C(=O)c2c(C)ccc3ccccc23)c2ccccc21 [JWH 073 2-methylnaphthyl analog] | 21.84 | 76.74 | 34.47 | 78.79 | 43.34 |  |  |  |  |  |  |  |  |
| O=C(c1cccc(I)c1)c1cn(CCCCCF)c2ccccc12 [AM-694 3-iodo isomer] | 31.37 | 89.49 | 37.20 | 12.71 | 48.58 |  |  |  |  |  |  |  |  |
| CCCCCn1cc(C(=O)c2cccc3cc(C)ccc23)c2ccccc21 [JWH 122 6-methylnaphthyl isomer] | 12.55 | 86.66 | 8.12 | 20.46 | 39.17 |  |  |  |  |  |  |  |  |
